{"source": "paper PMC2229521", "about": "(The Journal of General Physiology, 2002)", "key": {"[1]": {"target": "human adult nAChRs expressed in HEK 293 cells (Homo sapiens, UniProt P02708+P11230+Q04844+Q07001)", "sequence (P02708 21-457)": "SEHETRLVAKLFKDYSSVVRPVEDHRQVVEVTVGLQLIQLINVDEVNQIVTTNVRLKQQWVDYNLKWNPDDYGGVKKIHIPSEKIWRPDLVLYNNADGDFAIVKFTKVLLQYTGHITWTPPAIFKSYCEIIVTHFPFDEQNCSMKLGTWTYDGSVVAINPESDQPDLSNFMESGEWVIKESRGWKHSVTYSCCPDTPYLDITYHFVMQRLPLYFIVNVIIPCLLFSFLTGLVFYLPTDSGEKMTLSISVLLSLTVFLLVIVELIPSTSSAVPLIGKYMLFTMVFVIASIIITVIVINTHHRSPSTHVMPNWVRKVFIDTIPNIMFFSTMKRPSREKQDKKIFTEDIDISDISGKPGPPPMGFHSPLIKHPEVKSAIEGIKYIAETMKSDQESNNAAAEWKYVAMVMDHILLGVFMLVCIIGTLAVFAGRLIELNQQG", "sequence (P11230 24-501)": "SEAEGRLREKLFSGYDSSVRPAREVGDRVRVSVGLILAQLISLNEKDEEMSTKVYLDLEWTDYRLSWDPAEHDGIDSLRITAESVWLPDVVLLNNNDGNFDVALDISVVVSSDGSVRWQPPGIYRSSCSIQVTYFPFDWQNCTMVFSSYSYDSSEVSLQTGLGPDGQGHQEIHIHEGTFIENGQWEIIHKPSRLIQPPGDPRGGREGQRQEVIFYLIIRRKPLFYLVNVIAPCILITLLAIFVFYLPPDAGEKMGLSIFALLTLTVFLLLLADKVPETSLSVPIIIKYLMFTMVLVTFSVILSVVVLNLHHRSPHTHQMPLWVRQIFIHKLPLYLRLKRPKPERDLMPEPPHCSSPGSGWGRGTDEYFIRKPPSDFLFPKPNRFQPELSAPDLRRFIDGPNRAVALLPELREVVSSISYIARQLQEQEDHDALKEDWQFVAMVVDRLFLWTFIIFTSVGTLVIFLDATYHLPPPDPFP", "sequence (Q07001 22-517)": "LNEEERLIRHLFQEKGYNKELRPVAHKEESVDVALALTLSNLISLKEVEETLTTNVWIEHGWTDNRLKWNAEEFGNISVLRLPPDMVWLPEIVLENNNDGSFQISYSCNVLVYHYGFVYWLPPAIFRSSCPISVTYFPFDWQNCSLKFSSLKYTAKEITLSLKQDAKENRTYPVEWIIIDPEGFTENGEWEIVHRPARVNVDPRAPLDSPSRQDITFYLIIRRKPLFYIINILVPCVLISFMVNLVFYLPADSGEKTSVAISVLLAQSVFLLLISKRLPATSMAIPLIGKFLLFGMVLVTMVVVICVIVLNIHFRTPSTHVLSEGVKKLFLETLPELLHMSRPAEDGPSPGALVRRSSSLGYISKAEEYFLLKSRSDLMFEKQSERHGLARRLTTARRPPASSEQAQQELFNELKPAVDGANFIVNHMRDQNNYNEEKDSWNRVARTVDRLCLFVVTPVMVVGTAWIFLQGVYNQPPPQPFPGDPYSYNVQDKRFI", "sequence (Q04844 21-493)": "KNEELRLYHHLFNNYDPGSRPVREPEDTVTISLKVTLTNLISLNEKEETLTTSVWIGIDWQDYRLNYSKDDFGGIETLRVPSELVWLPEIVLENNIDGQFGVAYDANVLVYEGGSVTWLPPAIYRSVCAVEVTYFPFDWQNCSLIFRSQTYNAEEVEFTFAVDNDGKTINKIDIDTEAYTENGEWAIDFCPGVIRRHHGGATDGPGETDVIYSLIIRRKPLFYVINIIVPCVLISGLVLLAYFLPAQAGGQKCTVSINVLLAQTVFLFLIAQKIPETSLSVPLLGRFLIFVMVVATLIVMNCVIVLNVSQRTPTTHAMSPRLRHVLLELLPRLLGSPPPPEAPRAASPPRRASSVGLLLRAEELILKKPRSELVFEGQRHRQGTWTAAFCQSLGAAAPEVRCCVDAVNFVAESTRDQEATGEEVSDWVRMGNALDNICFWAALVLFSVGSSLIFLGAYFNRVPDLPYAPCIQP", "format": "binding", "details": "P = 0.64 by one-way ANOVA"}, "[2]": {"target": "neuronal nAChR ACh recognition sites", "details": "ref Perry et al., 1988; Hunter et al., 1989; cited from earlier work"}}, "data": [{"smiles": "C[N+](C)(C)CCOC(N)=O.[Cl-]", "note": "[carbamylcholine]", "values": [{"measurement": "difference in log IC 50 values in the presence of varying concentrations of tacrine", "setting": "[1]", "value": "No difference"}]}, {"smiles": "Nc1c2c(nc3ccccc13)CCCC2", "note": "[tacrine, 9-amino-1,2,3,4-tetrahydroacridine]", "values": [{"measurement": "Kd values, competitive binding", "setting": "[2]", "value": "low micromolar range"}]}]}
